Test results taken from patent US4753953A, “Pyridonecarboxylic acid derivatives and antibacterial pharmaceutical compositions thereof” (priority 1985, dated 1988).
≈ marks a conversion by molar mass, not a printed value. Like-named read-outs stand apart in the source and are kept apart here.

Experiments:
C. ramosum = assay: MIC, in vitro antibacterial activity (standard strains); format: cell-based; settings: Thomasclavelia ramosa; 10^6 cells/ml; Gram +; read-out: MIC
[1] = tested on: S. aureus IID 670 (Terajima); assay: as above; format: cell-based, Staphylococcus aureus; settings: Staphylococcus aureus, IID670; 10^6 cells/ml; Gram +; read-out: MIC
[2] = tested on: Veillonella parvula KYA 10790; assay: as above; format: cell-based; settings: Veillonella parvula, KYA10790; 10^6 cells/ml; Gram -; read-out: MIC
[3] = tested on: Klebsiella pneumoniae KY(GN)6445; assay: as above; format: cell-based; settings: Klebsiella pneumoniae; 10^6 cells/ml; Gram -; read-out: MIC
[4] = tested on: Bacteroides fragilis GM 7000; assay: as above; format: cell-based; settings: Bacteroides fragilis, GM7000; 10^6 cells/ml; Gram -; read-out: MIC
[5] = tested on: Salmonella enteritidis IID 604; assay: as above; format: cell-based; settings: Salmonella enterica; 10^6 cells/ml; Gram -; read-out: MIC
B. fragilis 25285 = assay: as above; format: cell-based, Bacteroides fragilis; settings: Bacteroides fragilis, 25285; 10^6 cells/ml; Gram -; read-out: MIC
[6] = tested on: Staphylococcus aureus 209 P; assay: as above; format: cell-based; settings: Staphylococcus aureus, 209P; 10^6 cells/ml; Gram +; read-out: MIC
E. coli ML 4707 = assay: as above; format: cell-based, Escherichia coli; settings: Escherichia coli, ML4707, 10^6 cells/ml; Gram -; Table 1; read-out: MIC
P. maltophilia GIFU 2491 = assay: as above; format: cell-based; settings: Stenotrophomonas maltophilia, GIFU2491; 10^6 cells/ml; Gram -; read-out: MIC
B. fragilis 0558 = assay: as above; format: cell-based, Bacteroides fragilis; settings: Bacteroides fragilis, 0558; 10^6 cells/ml; Gram -; read-out: MIC
[7] = tested on: Eubacterium lentum GAI 5242; assay: as above; format: cell-based; settings: Eggerthella lenta, GAI5242; 10^6 cells/ml; Gram +; read-out: MIC
S. pneumoniae IID 552 = assay: as above; format: cell-based; settings: Streptococcus pneumoniae, IID552; 10^6 cells/ml; Gram +; read-out: MIC
P. cepacia GIFU 518 = assay: as above; format: cell-based; settings: Burkholderia cepacia, GIFU518; 10^6 cells/ml; Gram -; read-out: MIC
[8] = tested on: B. thetaiotaomicron (0661); assay: as above; format: cell-based; settings: Bacteroides thetaiotaomicron; 10^6 cells/ml; Gram -; read-out: MIC
[9] = tested on: Acinetobacter anitratus IID 876; assay: as above; format: cell-based; settings: Acinetobacter calcoaceticus, IID876; 10^6 cells/ml; Gram -; read-out: MIC
Pst. micros UPI 5464-1 = assay: as above; format: cell-based; settings: Parvimonas micra, UPI54641; 10^6 cells/ml; Gram +; read-out: MIC
[10] = tested on: Alcaligenes faecalis 0114002; assay: as above; format: cell-based; settings: Alcaligenes faecalis, 0114002; 10^6 cells/ml; Gram -; read-out: MIC
B. vulgatus KYA 29327 = assay: as above; format: cell-based; settings: Phocaeicola vulgatus, KYA29327; 10^6 cells/ml; Gram -; read-out: MIC
S. pyogenes IID 692 = assay: as above; format: cell-based, Streptococcus pyogenes; settings: Streptococcus pyogenes, IID692; 10^6 cells/ml; Gram +; read-out: MIC
[11] = tested on: Peptococcus magnus KY 017; assay: as above; format: cell-based; settings: Finegoldia magna, KY017; 10^6 cells/ml; Gram +; read-out: MIC
[12] = tested on: Fusobacterium mortiferum 4249; assay: as above; format: cell-based; settings: Fusobacterium mortiferum, 4249; 10^6 cells/ml; Gram -; read-out: MIC
E. coli ATCC 10536 = assay: as above; format: cell-based, Escherichia coli; settings: Escherichia coli, ATCC10536; 10^6 cells/ml; Gram -; read-out: MIC
[13] = tested on: Enterobacter cloacae IID 977; assay: as above; format: cell-based; settings: Enterobacter cloacae, IID977; 10^6 cells/ml; Gram -; read-out: MIC
P. aeruginosa IID 1210 = assay: as above; format: cell-based, Pseudomonas aeruginosa; settings: Pseudomonas aeruginosa, IID1210; 10^6 cells/ml; Gram -; read-out: MIC
C. perfringens KYA 13123 = assay: microbe, parasite or virus in culture; format: cell-based; settings: Clostridium perfringens, KYA13123
[14] = tested on: Proteus vulgaris IFO 3167; assay: MIC, in vitro antibacterial activity (standard strains); format: cell-based; settings: Proteus vulgaris, IFO3167; 10^6 cells/ml; Gram -; read-out: MIC
[15] = tested on: Yersinia enterocolitica IID 981; assay: as above; format: cell-based; settings: Yersinia enterocolitica, IID981
B. distasonis 8503 = assay: as above; format: cell-based; settings: Parabacteroides distasonis, 8503; 10^6 cells/ml; Gram -; read-out: MIC
Shigella sonnei IID 969 = assay: as above; format: cell-based; settings: Shigella sonnei, IID969; 10^6 cells/ml; Gram -; read-out: MIC
Protocol: Minimal inhibitory concentrations (MICs) were determined in accordance with the method recommended by Japan Society of Chemotherapy.

S. aureus Smith = assay: as above; format: cell-based, Staphylococcus aureus; settings: Staphylococcus aureus; 10^6 cells/ml; Gram +; read-out: MIC
F. necrophorum S-45 = assay: as above; format: cell-based; settings: Fusobacterium necrophorum, S45; 10^6 cells/ml; Gram -; read-out: MIC

Row | Structure (SMILES) | MIC (C. ramosum) | MIC [1] | MIC [2] | MIC [3] | MIC [4] | MIC [5] | MIC (B. fragilis 25285) | MIC [6] | MIC (E. coli ML 4707) | MIC (P. maltophilia GIFU 2491) | MIC (B. fragilis 0558) | MIC [7] | MIC (S. pneumoniae IID 552) | MIC (P. cepacia GIFU 518) | MIC [8] | MIC [9] | MIC (Pst. micros UPI 5464-1) | MIC [10] | MIC (B. vulgatus KYA 29327) | MIC (S. pyogenes IID 692) | also measured
1 | C[C@H]1CN(c2c(F)cc3c(=O)c(C(=O)O)cn(C4CC4)c3c2F)C[C@H]1N.Cl (relative stereo) [Example 20, 7-(cis-3-Amino-4-methyl-1-pyrrolidinyl)-1-cyclopropyl-6,8-difluoro-1,4-dihydro-4-oxo-3-quinolinecarboxylic acid hydrochloride] | 1.56 mg/L | 0.05 mg/L | 0.2 mg/L | 0.025 mg/L | 0.39 mg/L | 0.05 mg/L | 0.39 mg/L | 0.05 mg/L | 0.025 mg/L | 0.39 mg/L | 0.39 mg/L | 0.2 mg/L | 0.2 mg/L | 0.39 mg/L | 0.78 mg/L | 0.05 mg/L | 0.2 mg/L | 0.39 mg/L | 0.39 mg/L | 0.39 mg/L | MIC [11]: 0.2 mg/L; MIC [12]: 0.39 mg/L; MIC (E. coli ATCC 10536): 0.025 mg/L; MIC [13]: 0.05 mg/L; MIC (P. aeruginosa IID 1210): 0.78 mg/L; MIC (C. perfringens KYA 13123): 0.2 mg/L; MIC [14]: 0.025 mg/L; MIC ([15]; 10^6 cells/ml, Gram -, read-out: MIC): 0.05 mg/L; MIC (B. distasonis 8503): 0.78 mg/L; MIC (Shigella sonnei IID 969): 0.0125 mg/L; MIC (S. aureus Smith): 0.05 mg/L; MIC (F. necrophorum S-45): 0.39 mg/L
2 | C[C@H]1CN(c2c(F)cc3c(=O)c(C(=O)O)cn(C4CC4)c3c2Br)C[C@H]1N (relative stereo) [Example 21, 7-(cis-3-Amino-4-methyl-1-pyrrolidinyl)-8-bromo-1-cyclopropyl-6-fluoro-1,4-dihydro-4-oxo-3-quinolinecarboxylic acid] | 0.78 mg/L (≈ 1.84 µM) | 0.05 mg/L (≈ 0.118 µM) | 0.1 mg/L (≈ 0.236 µM) | 0.0125 mg/L (≈ 0.0295 µM) | 0.1 mg/L (≈ 0.236 µM) | 0.025 mg/L (≈ 0.0589 µM) | 0.05 mg/L (≈ 0.118 µM) | 0.025 mg/L (≈ 0.0589 µM) | 0.0125 mg/L (≈ 0.0295 µM) | 0.05 mg/L (≈ 0.118 µM) | 0.05 mg/L (≈ 0.118 µM) | 0.05 mg/L (≈ 0.118 µM) | 0.2 mg/L (≈ 0.471 µM) | 0.39 mg/L (≈ 0.919 µM) | 0.2 mg/L (≈ 0.471 µM) | 0.025 mg/L (≈ 0.0589 µM) | 0.1 mg/L (≈ 0.236 µM) | 0.2 mg/L (≈ 0.471 µM) | 0.1 mg/L (≈ 0.236 µM) | 0.2 mg/L (≈ 0.471 µM) | MIC [11]: 0.05 mg/L (≈ 0.118 µM); MIC [12]: 0.2 mg/L (≈ 0.471 µM); MIC (E. coli ATCC 10536): 0.0125 mg/L (≈ 0.0295 µM); MIC [13]: 0.025 mg/L (≈ 0.0589 µM); MIC (P. aeruginosa IID 1210): 1.56 mg/L (≈ 3.68 µM); MIC (C. perfringens KYA 13123): 0.1 mg/L (≈ 0.236 µM); MIC [14]: 0.0125 mg/L (≈ 0.0295 µM); MIC [15]: 0.025 mg/L (≈ 0.0589 µM); MIC (B. distasonis 8503): 0.39 mg/L (≈ 0.919 µM); MIC (Shigella sonnei IID 969): 0.0063 mg/L (≈ 0.0148 µM); MIC (S. aureus Smith): 0.025 mg/L (≈ 0.0589 µM); MIC (F. necrophorum S-45): 0.1 mg/L (≈ 0.236 µM)
